Drawing on patent US10941216B2, “Engineered polypeptide conjugates and methods for making thereof using transglutaminase” (PFIZER INC., priority 2010, dated 2021), this text covers IC50 for seven compounds.

Like-named read-outs stand apart in the source and are kept apart here. Numbered stars: 1 amine (or outer) side, 2 acyl side, 3 side chain; on linkers, the order of the positions; unused ones are H or OH. Square brackets hold non-standard residues; d marks the D form. Peptide text beside a SMILES is read from it. * marks the point of attachment. ξ: configuration not given here. Dolaproine = CO[C@@H]([C@@H]1CCCN1)[C@@H](C)C(=O)O; X1 = COC([C@@H](C)C(=O)[*:2])[C@@H]1CCCN1[*:1]; Dil = CC[C@H](C)[C@H](NC)[C@@H](CC(=O)O)OC; PABC = O=C(OCc1ccc(N[*:1])cc1)[*:2]; Doe = c1ccc(C[C@H](N*)c2nccs2)cc1; X2 = C[C@@H](N*)[C@@H](O)c1ccccc1; Cit = NC(=O)NCCC[C@H](N)C(=O)O; NMeV = CN[C@H](C(=O)O)C(C)C; PEG3 = NCCOCCOCCOCCC(=O)O; ξK = NCCCCC(N)C(=O)O; Ahx = NCCCCCC(=O)O; βAla = NCCC(=O)O

Assay in all cases: In vitro cytotoxicity, CellTiter-Glo
Holding throughout (assay type): cell-based

One assay deals with HT-29 cells. Particulars: Homo sapiens; HT-29, target expressing, 96 hours; read-out: HT-29 Antibody IC50. As to the method:
(§1) In vitro cytotoxicity assays were carried out using various antibodies, payloads (i.e., agent moieties), and amine donor units. For mAb2 (a chimeric IgG1 antibody), target expressing (A431, OVCAR3, BxPC3 and HT-29) or non-expressing (SW620) cells were seeded on white walled clear bottom plates at 2000 cells/well for 24 hours before treatment. […] Cell viability was determined by CellTiter-Glo® Luminescent Cell Viability Assay 96 (Promega, Madison Wis.) 96 hours after treatment. […] IC50 was calculated by Prism software.

Another assay deals with A431 cells. Conditions: Homo sapiens. As to the method: as §1
The next assay has as its system SW620 cells. Conditions: Homo sapiens. How it is done:
as §1

In the next assay the test system is BxPC3 cells. Conditions: Homo sapiens, BXPC-3, 96 h, read-out: BxPC3 Antibody IC50 (nM). How it is done:
as §1

[1] abbreviates: A-431, 96 h, read-out: A431 Antibody IC50 (nM).
The mark [2] stands for this setting: A-431, A431, target expressing, 96 hours, read-out: A431 Antibody IC50.
[3] abbreviates: SW-620, SW620, target non-expressing, 96 hours, read-out: SW620 Antibody IC50.

Consider `CC[C@H](C)[C@@H]([C@@H](CC(=O)N1CCC[C@H]1[C@H](OC)[C@@H](C)C(=O)N[C@@H](Cc1ccccc1)c1nccs1)OC)N(C)C(=O)[C@@H](NC(=O)[C@H](C(C)C)N(C)C(=O)OCc1ccc(NC(=O)[C@H](CCCNC(N)=O)NC(=O)[C@@H](NC(=O)[C@H](CCCCN)NC(C)=O)C(C)C)cc1)C(C)C` [Sample 27, AcLys-VC-PABC-MMAD] (Ac-KV[Cit][PABC][NMeV]V[Dil][Dolaproine]-Doe), for which the IC50 was 0.189 nM in the assay on HT-29 cells and 0.003 nM in the assay on A431 cells (setting [1]).

`CC[C@H](C)[C@@H]([C@@H](CC(=O)N1CCC[C@H]1[C@H](OC)[C@@H](C)C(=O)N[C@@H](Cc1ccccc1)c1nccs1)OC)N(C)C(=O)[C@@H](NC(=O)[C@H](C(C)C)N(C)C(=O)CCCCCN)C(C)C` [Sample 28, Aminocaproyl-MMAD] (H-[Ahx][NMeV]V[Dil][Dolaproine]-Doe): the values for the IC50 in the assay with HT-29 cells and with A431 cells (setting [2]) were 97.5 nM and 146 nM, respectively.

As to `CC[C@H](C)[C@@H]([C@@H](CC(=O)N1CCC[C@H]1[C@H](OC)[C@@H](C)C(=O)N[C@H](C)[C@@H](O)c1ccccc1)OC)N(C)C(=O)[C@@H](NC(=O)[C@H](C(C)C)N(C)C(=O)CCOCCOCCOCCN)C(C)C` [Sample 33, Amino-PEG3-C2-MMAE] (H-[PEG3][NMeV]V[Dil][Dolaproine]-X2), the IC50 in the assay with HT-29 cells came to 211 nM; in the assay with A431 cells (setting [1]), 258 nM.

In the case of `CC[C@H](C)[C@@H]([C@@H](CC(=O)N1CCC[C@H]1[C@H](OC)[C@@H](C)C(=O)N[C@@H](Cc1ccccc1)C(=O)O)OC)N(C)C(=O)[C@@H](NC(=O)[C@H](C(C)C)N(C)C(=O)OCc1ccc(NC(=O)[C@H](CCCNC(N)=O)NC(=O)[C@@H](NC(=O)CCCCCN)C(C)C)cc1)C(C)C` [Sample 24, VC-PABC-MMAF] (H-[Ahx]V[Cit][PABC][NMeV]V[Dil][Dolaproine]F-OH), the IC50 in the assay with SW620 cells (SW-620, 96 h, read-out: SW620 Antibody IC50 (nM)) was determined as 483 nM; in the assay on BxPC3 cells, 427 nM.

As for `CO[C@H]1/C=C\C=C(/C)C(=O)NC2=CC(=O)C(NCCCCN)=C(C[C@@H](C)C[C@H](OC)[C@H](O)[C@@H](C)/C=C(\C)[C@@H]1OC(N)=O)C2=O` [Sample 25, Putrescinyl-Geldanamycin], the IC50 was more than 1000 nM with SW620 cells (setting [3]), 318 nM in the assay with HT-29 cells and more than 1000 nM with A431 cells (setting [2]).

Consider `CC[C@H](C)[C@@H]([C@@H](CC(=O)N1CCC[C@H]1C(OC)[C@@H](C)C(=O)N[C@@H](Cc1ccccc1)C(=O)O)OC)N(C)C(=O)[C@@H](NC(=O)[C@H](C(C)C)N(C)C(=O)CCCCCN)C(C)C` (stereo partly drawn) [Sample 23, Aminocaproyl-MMAF] (H-[Ahx][NMeV]V[Dil][X1]F-OH), for which the IC50 in the assay with SW620 cells (setting [3]) was determined as 0.01 nM; in the assay on BxPC3 cells, 0.28 nM.

`CC[C@H](C)[C@@H]([C@@H](CC(=O)N1CCC[C@H]1[C@H](OC)[C@@H](C)C(=O)N[C@@H](Cc1ccccc1)c1nccs1)OC)N(C)C(=O)[C@@H](NC(=O)[C@H](C(C)C)N(C)C(=O)CCNC(=O)C(CCCCN)NC(C)=O)C(C)C` (stereo partly drawn) [Sample 30, AcLys-β-Ala-MMAD] (Ac-[ξK][βAla][NMeV]V[Dil][Dolaproine]-Doe): the IC50 in the assay on HT-29 cells worked out at 59.5 nM; in the assay on A431 cells (setting [2]), 98.5 nM.
